# Assay results published in ChEMBL document CHEMBL1201862, “PubChem BioAssay data set” (2004).
# Active and inactive are the calls of the source.
# Legend:
# [1] = molecular target: T1, Disintegrin and metalloproteinase domain-containing protein 17 (Homo sapiens, UniProt P78536); assay: exosite inhibitors of ADAM17, dose response, biochemical (AID 743260)
# [2] = inhibition of ADAM10 peptide cleavage – biochemical, FRET peptide substrate, recombinant human ADAM10, selectivity assay for ADAM17 exosite inhibitor project, dose response (AID 743259);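 also: ADAM10 enzyme cleaving a FRET peptide substrate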
# [3] = Luminescence Cell-Based Dose Retest to Confirm Inhibitors of Cancer Stem Cells. [Related pubchem assays (depositor defined):AID2717, AID2721]; assay type: functional; conditions: Homo sapiens
# [4] = potency of ADAM10 substrate cleavage blockers – biochemical, QFRET, dose response (AID 743254);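 also: ADAM10 enzyme with the DM2 quenched FRET peptide as substrate; EDANS fluorescence gain as the protease cuts the substrate; inhibitor potency against ADAM10 proteolytic activity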
# [5] = molecular target: T1, Disintegrin and metalloproteinase domain-containing protein 17; assay: inhibition of ADAM17 substrate cleavage – biochemical, quenched FRET substrate, counter-screen for ADAM10 exosite inhibitor project, dose response (AID 743253)
# [6] = molecular target: Kallikrein-7 (Homo sapiens, UniProt P49862); assay: Fluorescence Intensity-based biochemical primary high throughput dose response assay to identify activators of kallikrein-7 (K7) zymogen.
# [7] = optical artefact potency, substrate without enzyme – biochemical, fluorescence intensity, triplicate, artefact control for kallikrein-7 zymogen activator project, dose response (AID 720493)
# [8] = viability loss in HepG2 liver cells – cell-based, ATP luminescence, cherry-pick, set 6, cytotoxicity control, dose response (AID 1053125); assay type: functional
# [9] = cells; conditions: A549
# [10] = molecular target: Induced myeloid leukemia cell differentiation protein Mcl-1 (Homo sapiens, UniProt Q07820); assay: blockers of MCL1 binding to BIM peptide – biochemical, fluorescence polarization, BIM-BH3 peptide, 1536-well, dose response (AID 2217)
# [11] = molecular target: Bcl-2-like protein 1 (Homo sapiens, UniProt Q07817); assay: blockers of BCLXL peptide binding – biochemical, fluorescence polarization, 1536-well, selectivity assay for MCL1 inhibitor project, dose response (AID 2218)
# [12] = molecular target: T2, Caspase-6 (Homo sapiens, UniProt P55212); assay: inhibition of CASP6 peptide cleavage – biochemical, VEID-R110 fluorescence, cherry-pick, dose response (AID 720632)
# T2 sequence (P55212 whole entry): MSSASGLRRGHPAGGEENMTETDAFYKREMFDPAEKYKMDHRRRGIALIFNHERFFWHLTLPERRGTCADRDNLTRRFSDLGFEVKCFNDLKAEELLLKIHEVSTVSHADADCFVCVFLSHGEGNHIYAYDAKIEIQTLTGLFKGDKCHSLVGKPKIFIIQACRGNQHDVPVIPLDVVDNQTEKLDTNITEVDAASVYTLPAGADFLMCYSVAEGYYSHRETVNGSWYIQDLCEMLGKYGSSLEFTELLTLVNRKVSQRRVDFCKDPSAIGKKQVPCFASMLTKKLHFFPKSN
# [13] = molecular target: Caspase-7 (Homo sapiens, UniProt P55210); assay: caspase-7 enzyme inhibition, selectivity check – biochemical, DEVD-R110 fluorescence, cherry-pick, selectivity assay for caspase-6 inhibitor project, dose response (AID 743295); assay type: functional
# [14] = molecular target: Caspase-8 (Homo sapiens, UniProt Q14790); assay: inhibitors of purified CASP8 protease – biochemical, Z-IETD-R110 fluorescence, cherry-picked samples, selectivity assay for caspase-6 inhibitor project, dose response (AID 743294)
# [15] = molecular target: T3, Microphthalmia-associated transcription factor (Homo sapiens, UniProt O75030); assay: reducers of TRPM1 reporter luminescence, concentration series – cell-based, SK-MEL-5, cherry-picked, set 3, MITF inhibitor project, dose response (AID 493073); assay type: functional;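 also: SK-MEL-5 melanoma cells with luciferase driven by the MITF target TRPM1 promoter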
# T3 sequence (O75030 whole entry): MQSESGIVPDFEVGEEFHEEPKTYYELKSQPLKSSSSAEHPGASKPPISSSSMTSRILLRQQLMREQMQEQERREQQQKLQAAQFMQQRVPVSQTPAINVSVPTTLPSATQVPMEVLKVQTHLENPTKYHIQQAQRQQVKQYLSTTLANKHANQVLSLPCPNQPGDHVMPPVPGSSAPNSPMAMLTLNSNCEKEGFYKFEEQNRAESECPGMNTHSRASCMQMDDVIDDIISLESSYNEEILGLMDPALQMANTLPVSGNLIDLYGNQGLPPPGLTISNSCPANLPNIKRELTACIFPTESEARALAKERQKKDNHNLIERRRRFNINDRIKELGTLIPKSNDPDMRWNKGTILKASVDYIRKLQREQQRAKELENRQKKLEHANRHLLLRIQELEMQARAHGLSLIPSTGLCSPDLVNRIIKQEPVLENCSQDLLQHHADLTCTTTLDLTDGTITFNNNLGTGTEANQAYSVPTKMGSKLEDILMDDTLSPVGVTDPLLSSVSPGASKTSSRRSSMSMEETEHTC
# [16] = blockers of HIV-1 envelope-mediated cell-cell fusion – cherry-pick, dose response (AID 652057); assay type: functional, cell-based
# [17] = viability loss in HEK293T cells – cell-based, cherry-picks, cytotoxicity control for HIV Vif inhibitor project, dose response (AID 652208); assay type: functional
# [18] = viability loss in CEM21 cells – cell-based, CellTiter-Glo luminescence, cherry-picked, cytotoxicity control for viral fusion inhibitor project, dose response (AID 652042); assay type: functional;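 also: potency for signal decrease meaning cytotoxicity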
# [19] = blockers of HIV-1 ZM109 envelope-driven cell-cell fusion – HeLa effector, CEM target cells, luciferase, cherry-pick, dose response (AID 652058); assay type: functional, cell-based;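 also: luciferase signal from HIV-1 Env mediated cell-cell fusion of effector and target cells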
# [20] = molecular target: Paired box protein Pax-8 (Homo sapiens, UniProt Q06710); assay: PAX8 transcriptional activity inhibition in RMG-I – RMG-I cells, luciferase, cherry-pick, dose response (AID 687027); assay type: functional, cell-based;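 also: luciferase reporter driven by Pax8 target thyroperoxidase promoter measured by SteadyGlo luminescence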
# [21] = off-target signal loss in HeLa-CEM21 co-culture – HeLa F-luc CTL cells, cherry-picked, counter-screen for HIV-1 Env fusion inhibitor project, dose response (AID 652040); assay type: functional, cell-based;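 also: potency for signal decrease marking cytotoxic or nonspecific inhibition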
# [22] = HIV-1 AD8 envelope cell-cell fusion blockers – cherry-pick, dose response (AID 652062); assay type: functional, cell-based;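 also: luciferase signal from cell-cell fusion driven by HIV-1 clade B AD8 Env; potency is for inhibitors of fusion seen as a drop in luminescence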
# [23] = general cell-killing toxicity readout – plate reader, dry powder samples, cytotoxicity control for PAX8 inhibitor project, dose response (AID 743021); assay type: functional, cell-based
# [24] = molecular target: T4, Methionyl-tRNA synthetase, putative (Trypanosoma brucei brucei, UniProt Q38C91); assay type: functional, Trypanosoma brucei brucei strain 927/4 GUTat10.1
# T4 sequence (Q38C91 whole entry): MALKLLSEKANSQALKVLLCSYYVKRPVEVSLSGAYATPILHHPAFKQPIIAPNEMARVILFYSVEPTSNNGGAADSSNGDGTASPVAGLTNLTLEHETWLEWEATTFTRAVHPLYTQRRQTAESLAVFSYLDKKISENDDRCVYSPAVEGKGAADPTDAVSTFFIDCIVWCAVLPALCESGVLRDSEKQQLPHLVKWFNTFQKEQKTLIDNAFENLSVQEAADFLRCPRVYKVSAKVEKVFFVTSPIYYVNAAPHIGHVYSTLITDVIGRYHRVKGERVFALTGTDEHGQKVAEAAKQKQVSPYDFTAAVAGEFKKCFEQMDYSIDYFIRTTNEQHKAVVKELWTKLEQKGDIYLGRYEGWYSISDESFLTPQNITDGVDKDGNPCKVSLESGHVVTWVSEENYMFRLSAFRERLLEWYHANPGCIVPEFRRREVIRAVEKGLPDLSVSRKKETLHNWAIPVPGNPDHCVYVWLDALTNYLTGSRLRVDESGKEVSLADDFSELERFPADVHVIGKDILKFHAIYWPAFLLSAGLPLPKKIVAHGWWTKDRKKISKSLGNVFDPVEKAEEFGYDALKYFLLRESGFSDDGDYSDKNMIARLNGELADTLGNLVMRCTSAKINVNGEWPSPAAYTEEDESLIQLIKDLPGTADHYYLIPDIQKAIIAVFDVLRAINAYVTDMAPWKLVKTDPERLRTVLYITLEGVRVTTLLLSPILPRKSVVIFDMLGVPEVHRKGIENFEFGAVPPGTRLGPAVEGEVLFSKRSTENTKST
# [25] = Counterscreen for inhibitors of Trypanosoma brucei methionyl tRNA synthetase (MetRS): Luminescence-based cell-based high throughput dose response assay to identify compounds that are cytotoxic to Jurkat human T lymphocyte cells.; assay type: functional
# [26] = molecular target: T4, Methionyl-tRNA synthetase, putative; assay type: functional, Trypanosoma brucei brucei strain 927/4 GUTat10.1; remark: listed apart in the source
# [27] = Late stage counterscreen for inhibitors of Trypanosoma brucei methionyl tRNA synthetase (MetRS): Luminescence-based cell-based high throughput dose response assay to identify compounds that are cytotoxic to Jurkat human T lymphocyte cells.; assay type: functional
# [28] = luciferase signal loss, tTA control fusion, HeLa F-luc tTA cells, dry powder, counter-screen for HIV Env fusion inhibitor project, dose response (AID 687021); assay type: functional, cell-based
# T1 sequence (P78536 whole entry, the tested form may be a part): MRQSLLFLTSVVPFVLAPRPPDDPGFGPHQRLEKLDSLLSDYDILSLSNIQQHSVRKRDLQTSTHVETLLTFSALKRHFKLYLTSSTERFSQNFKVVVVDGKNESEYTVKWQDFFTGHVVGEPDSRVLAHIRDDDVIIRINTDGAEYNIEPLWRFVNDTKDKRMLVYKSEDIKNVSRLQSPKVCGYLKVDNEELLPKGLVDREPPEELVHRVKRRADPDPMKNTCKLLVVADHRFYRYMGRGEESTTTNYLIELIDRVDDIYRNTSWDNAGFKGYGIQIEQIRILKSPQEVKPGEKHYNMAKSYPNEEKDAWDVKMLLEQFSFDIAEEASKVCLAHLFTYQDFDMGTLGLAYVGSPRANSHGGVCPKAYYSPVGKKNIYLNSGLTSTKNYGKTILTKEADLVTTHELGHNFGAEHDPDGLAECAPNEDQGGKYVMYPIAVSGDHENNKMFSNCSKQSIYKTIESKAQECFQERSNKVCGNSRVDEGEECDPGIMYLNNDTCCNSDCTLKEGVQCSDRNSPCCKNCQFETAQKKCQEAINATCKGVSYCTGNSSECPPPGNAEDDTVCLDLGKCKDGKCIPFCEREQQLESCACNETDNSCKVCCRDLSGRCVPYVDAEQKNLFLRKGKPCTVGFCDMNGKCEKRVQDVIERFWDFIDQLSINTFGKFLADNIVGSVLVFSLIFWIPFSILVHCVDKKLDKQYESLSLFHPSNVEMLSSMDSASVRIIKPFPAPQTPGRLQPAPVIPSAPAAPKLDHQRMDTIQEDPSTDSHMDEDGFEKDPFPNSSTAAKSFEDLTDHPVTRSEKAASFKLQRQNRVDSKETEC
# Caspase-7, sequence (P55210 24-198 limits assumed): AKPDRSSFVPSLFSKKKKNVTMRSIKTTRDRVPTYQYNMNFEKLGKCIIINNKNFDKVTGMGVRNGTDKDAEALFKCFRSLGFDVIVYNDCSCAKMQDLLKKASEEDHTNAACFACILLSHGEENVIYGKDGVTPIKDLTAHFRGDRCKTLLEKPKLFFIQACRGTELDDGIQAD
# Caspase-7, sequence (P55210 207-303 limits assumed): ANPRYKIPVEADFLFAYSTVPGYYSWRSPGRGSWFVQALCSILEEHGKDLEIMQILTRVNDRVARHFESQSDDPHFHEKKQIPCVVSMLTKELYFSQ
# Kallikrein-7, sequence (P49862 whole entry): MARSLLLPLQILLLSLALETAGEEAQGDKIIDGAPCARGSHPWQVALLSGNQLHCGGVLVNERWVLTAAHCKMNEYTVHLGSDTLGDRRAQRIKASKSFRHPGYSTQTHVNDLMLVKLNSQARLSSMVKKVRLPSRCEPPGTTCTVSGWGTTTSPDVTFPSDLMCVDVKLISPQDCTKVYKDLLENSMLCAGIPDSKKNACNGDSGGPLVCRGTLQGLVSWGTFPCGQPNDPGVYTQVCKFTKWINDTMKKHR
# Induced myeloid leukemia cell differentiation protein Mcl-1, sequence (Q07820 whole entry): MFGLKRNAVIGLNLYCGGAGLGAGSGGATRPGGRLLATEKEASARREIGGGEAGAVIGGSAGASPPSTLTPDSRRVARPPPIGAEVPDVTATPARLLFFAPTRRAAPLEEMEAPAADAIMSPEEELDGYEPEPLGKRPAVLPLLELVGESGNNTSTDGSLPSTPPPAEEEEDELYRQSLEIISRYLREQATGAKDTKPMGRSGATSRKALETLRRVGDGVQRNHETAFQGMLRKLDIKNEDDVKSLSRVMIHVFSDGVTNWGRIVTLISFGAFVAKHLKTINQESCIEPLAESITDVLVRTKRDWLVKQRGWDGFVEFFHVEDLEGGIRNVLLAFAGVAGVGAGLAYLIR
# Bcl-2-like protein 1, sequence (Q07817 whole entry): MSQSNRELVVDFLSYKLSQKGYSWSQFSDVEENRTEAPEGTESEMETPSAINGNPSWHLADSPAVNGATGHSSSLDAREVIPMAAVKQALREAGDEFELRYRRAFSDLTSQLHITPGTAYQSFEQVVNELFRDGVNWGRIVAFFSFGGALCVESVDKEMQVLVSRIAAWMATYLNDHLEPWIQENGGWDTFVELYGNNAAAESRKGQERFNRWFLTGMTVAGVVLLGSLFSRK
# Caspase-8, sequence (Q14790 217-374 limits assumed): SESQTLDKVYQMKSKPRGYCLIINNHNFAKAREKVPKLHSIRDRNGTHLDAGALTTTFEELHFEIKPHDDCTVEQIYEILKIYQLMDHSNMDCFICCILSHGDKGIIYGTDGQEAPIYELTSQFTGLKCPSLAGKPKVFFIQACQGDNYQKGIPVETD
# Caspase-8, sequence (Q14790 385-479 limits assumed): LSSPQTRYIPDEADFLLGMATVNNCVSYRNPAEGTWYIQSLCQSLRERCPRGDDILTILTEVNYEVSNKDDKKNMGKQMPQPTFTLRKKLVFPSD
# Paired box protein Pax-8, sequence (Q06710 whole entry, the tested form may be a part): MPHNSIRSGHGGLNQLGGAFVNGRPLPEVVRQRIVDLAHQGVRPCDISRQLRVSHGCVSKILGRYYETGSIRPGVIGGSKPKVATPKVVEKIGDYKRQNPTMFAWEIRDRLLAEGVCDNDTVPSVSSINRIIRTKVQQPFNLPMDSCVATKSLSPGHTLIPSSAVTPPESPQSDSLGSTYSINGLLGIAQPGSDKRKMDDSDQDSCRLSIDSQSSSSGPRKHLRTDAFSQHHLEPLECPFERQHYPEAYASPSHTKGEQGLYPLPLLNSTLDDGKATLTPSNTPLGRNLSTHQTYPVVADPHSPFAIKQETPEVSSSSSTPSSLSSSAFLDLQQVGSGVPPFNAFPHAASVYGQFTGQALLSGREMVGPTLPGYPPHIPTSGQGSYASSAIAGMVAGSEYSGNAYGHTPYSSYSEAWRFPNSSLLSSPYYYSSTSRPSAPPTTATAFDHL
compound,measurement,setting,value
COc1ccc(CNC(=O)CN(Cc2ccc(Cl)cc2)S(=O)(=O)c2ccccc2)cc1,IC50,[1],> 69.5 µM (inactive)
same,IC50,[2],> 69.5 µM (inactive)
Cc1cc(C)cc(NS(=O)(=O)c2ccc(Oc3ncc(C(F)(F)F)cc3Cl)cc2)c1,AC50,[3],2.09 µM (active)
same,IC50,[4],12 µM (inactive)
same,IC50,[5],> 69.5 µM (inactive)
CNc1cc(C)c(C#N)c2nc3ccccc3n12,EC50,[6],3.77 µM (active)
same,EC50,[7],> 2.58 µM (active)
O=C(NNc1c2ccccc2nc2ccccc12)c1ccc(O)cc1,AC50,[8],> 52 µM (inactive)
same,AC50,[9],> 52 µM (inactive)
CCCCN(C(=O)c1cccc(-n2cccc2)c1)c1c(N)n(CCC)c(=O)[nH]c1=O,IC50,[10],> 12.1 µM (not active)
same,IC50,[11],> 109 µM (not active)
same,AC50,[12],1.93 µM (active)
same,AC50,[13],51.2 µM (active)
same,AC50,[14],> 70 µM (inactive)
OCC1OC(n2cnc3c(NCc4ccco4)ncnc32)C(O)C1O (stereo not drawn),AC50,[15],3.88 µM (active)
same,AC50,[16],7.32 µM (active)
same,AC50,[17],13.8 µM (active)
same,AC50,[18],2.94 µM (active)
same,AC50,[19],6.03 µM (active)
same,AC50,[20],2.41 µM (active)
same,AC50,[21],36.8 µM (active)
same,AC50,[22],6.9 µM (active)
same,AC50,[23],1.38 µM (active)
CN(Cc1cc(Cl)cc(Cl)c1)[C@H]1C[C@H]2c3[nH]c4ccccc4c3CCN2C(=O)[C@H]1CO,IC50,[24],1.64 µM (active)
same,IC50,[25],80.2 µM (inactive)
same,IC50,[26],1.33 µM (active)
same,IC50,[27],31.7 µM (inactive)
CC1(C)CC(NC(=O)C(=O)Nc2ccc(Cl)cc2)CC(C)(C)N1,AC50,[28],> 70 µM (inactive)
